Patent publication US20040029829A1, “External skin preparations and process for producing the same” (priority 2000, published 2004)

Test system: human epidermic cells
Assay: Cell activation effect by cell culture (metabolic activity, WST-1)
Type: cell-based
Conditions: 0.5% fermented product 1 (SB), alone or combined
Procedure: Immortalized cells obtained by transforming human epidermic cells (manufactured by Kurabo Industries, Ltd.) using SV40 virus T antigen according to the method of Yasumoto et al. (Cultured Cell Experiment For Molecular Biology Research by S. Yasumoto, edited by T. Kuroki et al., Yodosha Co., Ltd., 1995, pp 191-200) were used as test cells. The cells were disseminated in a 96 well plate (4×10^3 cells/0.1 ml/well) and cultured in a serum-free liquid medium for proliferation (HuMedia-KG 2: Kurabo Industries, Ltd.) under the conditions of 37° C. and a CO2 concentration of 5%. […] The cells were also cultured in media to which the above components were individually added as Comparative Examples, and in a medium to which none of these components were added as a control. On the third day of culturing, a reducing-type coloring reagent (WST-1, manufactured by Dojindo Co.) was added in an amount of 10 μl/well, followed by incubation for 2 hours under the conditions of 37° C. and a CO2 concentration of 5%. Then, absorption at 450-660 nm was measured. Metabolic activity of the cells was calculated from the resulting absorbance. The cell activation effect was evaluated from the rate of increase in the metabolic activity in comparison with the control sample. […]

Row | Structure (SMILES) | metabolic activity of human epidermic cells (5×10^−10 M all-trans-retinoic acid (RA), FIG. 2) | metabolic activity of human epidermic cells (5×10^−9 M all-trans-retinol (ROH), FIG. 1)
1 | CC1=C(/C=C/C(C)=C/C=C/C(C)=C/C(=O)O)C(C)(C)CCC1 [all-trans-retinoic acid] | cannot exhibit metabolic activity | –
2 | CC1=C(/C=C/C(C)=C/C=C/C(C)=C/CO)C(C)(C)CCC1 [all-trans-retinol] | – | cannot exhibit metabolic activity
